In data set [1] the test system is Mycobacterium tuberculosis. The data set is described as follows: Antimycobacterial activity against multidrug (INH and RIF)-resistant Mycobacterium tuberculosis clinical isolate 1 assessed as inhibition of bacterial growth incubated for 7 days by rapid direct susceptibility test technique. The data set is classed as functional. Conditions: 168 h.
Data set [2] relates to Mycobacterium tuberculosis. Put plainly: Antimycobacterial activity against multidrug (ethambutol, INH and RIF)-resistant Mycobacterium tuberculosis clinical isolate 2 assessed as inhibition of bacterial growth incubated for 7 days by rapid direct susceptibility test technique. The data set is classed as functional. The note with it: 168 h.
The nature of data set [3]: Selectivity index, ratio of CC50 for CHO cells to MIC for multidrug (INH and RIF)-resistant Mycobacterium tuberculosis clinical isolate 1. The data set is classed as toxicity. Conditions: hamster, read-out: Selectivity Index.
Data set [4] deals with Mycobacterium tuberculosis. The data set is described as follows: Potency index, ratio of ciprofloxacin MIC to compound MIC for multidrug (INH and RIF)-resistant Mycobacterium tuberculosis clinical isolate 1 incubated for 7 days by rapid direct susceptibility test technique. The data set is classed as functional.
In data set [5] the test system is Mycobacterium tuberculosis. The data set is described as follows: Potency index, ratio of ciprofloxacin MIC to compound MIC for multidrug (ethambutol, INH and RIF)-resistant Mycobacterium tuberculosis clinical isolate 2 incubated for 7 days by rapid direct susceptibility test technique. The data set is classed as functional.
Data set [6] relates to Mycobacterium tuberculosis. Put plainly: Potency index, ratio of isoniazid MIC to compound MIC for multidrug (INH and RIF)-resistant Mycobacterium tuberculosis clinical isolate 1 incubated for 7 days by rapid direct susceptibility test technique. The data set is classed as functional.
The test system of data set [7] is Mycobacterium tuberculosis. Put plainly: Potency index, ratio of isoniazid MIC to compound MIC for multidrug (ethambutol, INH and RIF)-resistant Mycobacterium tuberculosis clinical isolate 2 incubated for 7 days by rapid direct susceptibility test technique. The data set is classed as functional.
The subject of data set [8] is Mycobacterium tuberculosis. The data set is described as follows: Potency index, ratio of rifampicin MIC to compound MIC for multidrug (INH and RIF)-resistant Mycobacterium tuberculosis clinical isolate 1 incubated for 7 days by rapid direct susceptibility test technique. The data set is classed as functional.
The test system of data set [9] is Mycobacterium tuberculosis. The data set is described as follows: Potency index, ratio of rifampicin MIC to compound MIC for multidrug (ethambutol, INH and RIF)-resistant Mycobacterium tuberculosis clinical isolate 2 incubated for 7 days by rapid direct susceptibility test technique. The data set is classed as functional.

Values after ≈ are worked out from the molar mass of the structure shown.

The MIC is the least concentration at which growth counts as inhibited. On to `CCOC(=O)c1c(-c2ccccc2)oc2ccc(OCCCN3C(=O)/C(=N/O)c4ccccc43)cc12`, for which the results for the minimum inhibitory concentration (MIC) in data set [1] and in data set [2] were 8 µg/mL (≈ 16.5 µM) and 16 µg/mL (≈ 33 µM), respectively. For the same compound, the selectivity ratio in data set [3] is 64.
With `CCOC(=O)c1c(-c2ccc(F)cc2)oc2ccc(OCCCCCCN3C(=O)/C(=N/OC)c4ccccc43)cc12`, the results for the minimum inhibitory concentration (MIC) in [1] and in data set [2] were 0.5 µg/mL (≈ 0.895 µM) and 0.25 µg/mL (≈ 0.448 µM), respectively. Moreover, in [3], the selectivity ratio is 258.
`CNC(=O)c1c(-c2ccc(O)cc2)oc2ccc(O)c(CN3CCCCC3)c12`: the MIC in data set [1] and in data set [2] was below 0.06 µg/mL in each case. Also, the selectivity ratio in data set [3] was above 16400.
On to `CCOC(=O)c1c(-c2ccc(F)cc2)oc2ccc(OCCCN3C(=O)/C(=N/O)c4ccccc43)cc12`, for which the minimum inhibitory concentration (MIC) in data set [1] amounted to 8 µg/mL (≈ 15.9 µM); in data set [2], 4 µg/mL (≈ 7.96 µM). Moreover, the selectivity ratio in data set [3] was 32.
As to `CCOC(=O)c1c(-c2ccccc2)oc2ccc(OCCCN3C(=O)C(=O)c4cc(OC)ccc43)cc12`, the minimum inhibitory concentration (MIC) in data set [1] was found to be 8 µg/mL (≈ 16 µM); in data set [2] it was 16 µg/mL (≈ 32 µM). Also, the selectivity ratio in data set [3] stood at 64.
As to `CCOC(=O)c1c(-c2ccc(OC)cc2)oc2ccc(OCCCN3C(=O)C(=O)c4cc(F)ccc43)cc12`, the MIC in data set [1] and in data set [2] was 2 µg/mL (≈ 3.86 µM) each time. In addition, in data set [3], the selectivity ratio is 32.
As for `CCOC(=O)c1c(-c2ccc(F)cc2)oc2ccc(OCCCCCCN3C(=O)C(=O)c4cc(OC)ccc43)cc12`, the minimal inhibitory concentration (MIC) in [1] and in data set [2] was 2 µg/mL (≈ 3.57 µM) throughout. Besides, the selectivity ratio in data set [3] is 128.
Consider `CCOC(=O)c1c(-c2ccccc2)oc2ccc(OCCCN3C(=O)/C(=N/O)c4cc(OC)ccc43)cc12`, for which the minimal inhibitory concentration (MIC) in [1] and in [2] was 16 µg/mL (≈ 31.1 µM) each time. The selectivity ratio in data set [3] came to 32.
Regarding `CCOC(=O)c1c(-c2ccc(F)cc2)oc2ccc(OCCCN3C(=O)C(=O)c4ccccc43)cc12`, the MIC is 1 µg/mL (≈ 2.05 µM) in [1] and 2 µg/mL (≈ 4.1 µM) in data set [2]. In addition, in [3], the selectivity ratio came to 256.
Regarding `CCOC(=O)c1c(-c2ccc(F)cc2)oc2ccc(OCCCCCCN3C(=O)/C(=N\O)c4cc(OC)ccc43)cc12`, the minimal inhibitory concentration (MIC) in data set [1] is 4 µg/mL (≈ 6.96 µM); in data set [2], 1 µg/mL (≈ 1.74 µM). The selectivity ratio in data set [3] was 128.
On to `CCOC(=O)c1c(-c2ccc(OC)cc2)oc2ccc(OCCCCCCN3C(=O)/C(=N/NC(N)=S)c4cc(F)ccc43)cc12`, for which the MIC in data set [1] was 0.125 µg/mL (≈ 0.198 µM); in data set [2], 0.25 µg/mL (≈ 0.395 µM). For the same compound, the selectivity ratio in data set [3] was determined as 1024. For the same compound, the Ratio in data set [4] was 8 - 16; in data set [5], 8 - 16; in [6], “>=512”; in data set [7], “>=512”; in [8] it was “>=512”; in data set [9], “>=512”.
As to `CCO/N=C1\C(=O)N(CCCCCCOc2ccc3oc(-c4ccc(F)cc4)c(C(=O)OCC)c3c2)c2ccc(OC)cc21`, the minimum inhibitory concentration (MIC) was 2 µg/mL (≈ 3.32 µM) in data set [1] and 1 µg/mL (≈ 1.66 µM) in [2]. Besides, the selectivity ratio in data set [3] came to 128.
In the same order, the values of `CCOC(=O)c1c(-c2ccc(F)cc2)oc2ccc(OCCN3C(=O)C(=O)c4cc(OC)ccc43)cc12` are 8 µg/mL (≈ 15.9 µM), 4 µg/mL (≈ 7.94 µM) and 64.
In the same order, the values of `CCOC(=O)c1c(-c2ccccc2)oc2ccc(OCCN3C(=O)C(=O)c4cc(F)ccc43)cc12` are 4 µg/mL (≈ 8.45 µM), 2 µg/mL (≈ 4.22 µM) and 16.
As for `CCOC(=O)c1c(-c2ccccc2)oc2ccc(OCCCCCCN3C(=O)C(=O)c4ccccc43)cc12`, the MIC amounted to 1 µg/mL (≈ 1.95 µM) in [1] and 2 µg/mL (≈ 3.91 µM) in data set [2]. For the same compound, the selectivity ratio in data set [3] came out at 128.
Taken in the same sequence, the figures for `CCOC(=O)c1c(-c2ccc(OC)cc2)oc2ccc(OCCCCN3C(=O)C(=O)c4ccccc43)cc12` were 2 µg/mL (≈ 3.89 µM), 4 µg/mL (≈ 7.79 µM) and 128.
In the same order, the values of `CCOC(=O)c1c(-c2ccc(OC)cc2)oc2ccc(OCCCCCN3C(=O)C(=O)c4ccccc43)cc12` are 2 µg/mL (≈ 3.79 µM), 1 µg/mL (≈ 1.9 µM) and 64.
As for `CCOC(=O)c1c(-c2ccc(F)cc2)oc2ccc(OCCN3C(=O)C(=O)c4ccccc43)cc12`, the MIC in data set [1] and in data set [2] was 4 µg/mL (≈ 8.45 µM) throughout. The selectivity ratio in [3] worked out at 32.
For the compound `CCOC(=O)c1c(-c2ccccc2)oc2ccc(OCCCN3C(=O)C(=O)c4ccccc43)cc12`, the results for the MIC in data set [1] and in data set [2] were 4 µg/mL (≈ 8.52 µM) and 8 µg/mL (≈ 17 µM), respectively. Also, the selectivity ratio in data set [3] was 63.
Taken in the same sequence, the figures for `CCOC(=O)c1c(-c2ccc(F)cc2)oc2ccc(OCCN3C(=O)C(=O)c4cc(F)ccc43)cc12` were 2 µg/mL (≈ 4.07 µM), 2 µg/mL (≈ 4.07 µM) and 32.
For `NNC(=O)c1ccncc1` [ISONIAZID], the MIC in data set [1] and in [2] was above 128 µg/mL in each case. Moreover, the selectivity ratio in [3] was below 2.
Consider `CO[C@H]1/C=C/O[C@@]2(C)Oc3c(C)c(O)c4c(O)c(c(/C=N/N5CCN(C)CC5)c(O)c4c3C2=O)NC(=O)/C(C)=C\C=C\[C@H](C)[C@H](O)[C@@H](C)[C@@H](O)[C@@H](C)[C@H](OC(C)=O)[C@@H]1C` [RIFAMPIN], for which the minimum inhibitory concentration (MIC) in data set [1] is 64 µg/mL (≈ 77.8 µM); in data set [2], above 128 µg/mL. In addition, the selectivity ratio in data set [3] is 8.
